Test results: patent publication US20110038796A1, “Method of Nuclear Medical Photography Using Dual-Isotopes” (ATOMIC ENERGY COUNCIL-INSTITUTE OF NUCLEAR ENERGY RESEARCH, priority 2009, published 2011)
Where a name gives a salt, the structure may show the parent alone.

Legend:
dopamine transporter [1] = biological target: dopamine transporter (Homo sapiens, UniProt Q01959); conditions: cited from earlier work
dopamine transporter [2] = assay: SPECT with [^99mTc]TRODAT-1 (single-isotope or dual-isotopes), specific uptake ratio in striatum; type: in vivo, Macaca Cyclopis
Protocol: (§1) Please refer to FIG. 1, which is a flow view showing a preferred embodiment according to the present disclosure. As shown in the figure, the present disclosure is a method of nuclear medical photography using dual-isotopes, where effect of using dual isotopes on diagnosing anomalies of dopamine and serotonin in primate's brain is evaluated. The present disclosure comprises the following steps: (a) Obtaining control group 11: A control group is obtained, comprising at least one first individual applied with an imaging agent of single-isotope of [^99mTc]TRODAT-1 for dopamine transporter; at least one second individual applied with an imaging agent of single-isotope of [^123I]ADAM for serotonin transporter; and at least one third individual applied with imaging agents of dual-isotopes of [^99mTc]TRODAT-1 and [^123I]ADAM. Therein, the individuals are non-human primates, like Macaca Cyclopis.
(§2) (b) Taking photos for control group 12: Photos of the first to the third individuals in the control group are taken through single photon emission computed tomography (SPECT). Therein, on taking the photo of the first individual applied with the single-isotope of [^99mTc]TRODAT-1, 90 mg/ml of KClO4 is applied to the first individual at first; and, then, after 20 minutes, 740 MBq (20 mCi) of [^99mTc]TRODAT-1 is injected from intravenous. After [^99mTc]TRODAT-1 is injected, a SPECT device equipped with dual-headed gamma cameras (Hawkeye, Millennium VG, General Elecral Medical System, Milwaukee, Wis. USA) coordinated with fan-beam collimators is used to take photos, where 15 dynamic sequence of brain images are taken during 30 minutes (2 min/frame). Therein, an energy window is set between 126 Kev and 154 Kev; data of 128×128 pixel-matrice are fetched; each photo are enlarged for 1.6 times; a photo is taken for each 3° from 360°; and, each of the two detectors is responsible for taking photos for 180°. After data are collected and processed through Metz filter with attenuation calibration, three three-dimensional (3D) photos of coronal, sagittal and transaxial sections are formed. On taking the photo of the second individual applied with the single-isotope of [^123I]ADAM, 185 MBq (5 mCi) of [^123I]ADAM is injected from intravenous; and, an energy window is set between 143 Kev and 175 Kev. On taking the photo of the third individual applied with the dual-isotopes, 90 mg/ml of KClO4 is applied to the […] at first; and, after 20 minutes, 740 MBq (20 mCi) of [^99mTc]TRODAT-1 and 185 MBq (5 mCi) of [^123I]ADAM are injected from intravenous almost simultaneously. Therein, an energy window for [^99mTc]TRODAT-1 is set between 129 Kev and 151 Kev and another energy window for [^123I]ADAM is set between 159 Kev and 175 Kev.
(§3) (c) Analyzing photos of control group 13: Magnetic resonance imaging (MRI) photos of the first to the third individuals are taken to provide reference information for the following analysis:
(§4) (c3) Analysis on dual-isotopes: The photo of the third individual applied with the dual-isotopes of [^123I]ADAM and [^99mTc]TRODAT-1 obtained in step (b) are processed through visual interpretation to figure out an SUR of [^99mTc]TRODAT-1 in striatum and an SUR of [^123I]ADAM in midbrain, thalamus, striatum and frontal cortex.

serotonin transporter = assay: SPECT with [^123I]ADAM (single-isotope or dual-isotopes), specific uptake ratio in brain regions; type: in vivo, Macaca Cyclopis
Protocol: as §1, §2, §3
(c1) Analysis on [^123I]ADAM: The photo of the […] individual applied with the single-isotope of [^123I]ADAM obtained in step (b) are processed through visual interpretation to pick out regions of interest (ROI) abundant in serotonin transporter, like midbrain, thalamus, striatum and frontal cortex; and a region lack of serotonin transporter, like cerebellum, is set as background. Mean counts per pixel (MCPP) of the ROIs are deducted with MCPPs of the background and then are divided by the MCPPs of the background to figure out a specific uptake ratios (SUR) of the single-isotope of [^123I]ADAM.
as §4

[3] = 180 to 210 minutes after injection

dopamine transporter (Homo sapiens, UniProt Q01959), sequence (Q01959 whole entry): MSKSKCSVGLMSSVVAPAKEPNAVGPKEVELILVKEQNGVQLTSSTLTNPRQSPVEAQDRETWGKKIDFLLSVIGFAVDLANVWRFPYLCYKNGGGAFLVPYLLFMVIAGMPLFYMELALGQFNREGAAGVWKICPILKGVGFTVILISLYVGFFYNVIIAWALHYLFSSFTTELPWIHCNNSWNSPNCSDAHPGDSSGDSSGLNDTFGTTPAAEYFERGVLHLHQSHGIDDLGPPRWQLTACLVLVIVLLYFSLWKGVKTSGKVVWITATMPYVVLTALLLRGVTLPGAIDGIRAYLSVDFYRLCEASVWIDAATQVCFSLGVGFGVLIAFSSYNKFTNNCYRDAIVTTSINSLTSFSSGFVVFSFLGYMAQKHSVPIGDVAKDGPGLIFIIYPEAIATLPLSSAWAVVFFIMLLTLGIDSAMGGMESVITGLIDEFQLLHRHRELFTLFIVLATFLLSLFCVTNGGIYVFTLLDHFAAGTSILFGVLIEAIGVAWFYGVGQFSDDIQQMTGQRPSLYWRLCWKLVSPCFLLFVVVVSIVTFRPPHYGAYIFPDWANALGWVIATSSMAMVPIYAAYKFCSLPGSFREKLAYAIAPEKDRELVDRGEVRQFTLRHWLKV

CN1[C@H]2CC[C@@H]1[C@@H](CN(CC[S-])CC[N-]CC[S-])[C@@H](c1ccc(Cl)cc1)C2.[O]=[99Tc+4] [[^99mTc]TRODAT-1]
time to reach the highest binding level after injection (dopamine transporter [1]): within two hours | [^99mTc]TRODAT-1 SUR of striatum, single-isotope versus dual-isotopes (dopamine transporter [2]; [3]): no big difference

CNCCC(Oc1ccc(C(F)(F)F)cc1)c1ccccc1 (stereo not drawn) [fluoxetine]
[^99mTc]TRODAT-1 SURs after pretreatment with fluoxetine (dopamine transporter [2]; dual-isotopes, 180 to 210 minutes after injection, pretreated with fluoxetine for 16 hours): no big changes | uptakes of [^99mTc]TRODAT-1 of striatum after pretreatment with fluoxetine versus not pretreated (conclusion) (dopamine transporter [2]; pretreated with fluoxetine for 16 hours): no big difference

COC(=O)C(c1ccccc1)C1CCCCN1 (stereo not drawn) [methylphenidate HCl]
uptakes of [^123I]ADAM after pretreatment with methylphenidate HCl versus not pretreated (serotonin transporter; midbrain, striatum, thalamus and frontal cortex, dual-isotopes, 180 to 210 minutes after injection, methylphenidate HCl 1 mg/kg): no big difference | specific uptakes of [^123I]ADAM after pretreatment with methylphenidate HCl versus not pretreated (conclusion) (serotonin transporter; midbrain, thalamus, striatum and frontal cortex): no big changes | [^123I]ADAM SURs after pretreatment with methylphenidate HCl (serotonin transporter; striatum, thalamus and midbrain, dual-isotopes, methylphenidate HCl 1 mg/kg): no big changes | uptakes of [^99mTc]TRODAT-1 of striatum after pretreatment with methylphenidate HCl (conclusion) (dopamine transporter [2]; dual-isotopes): obviously reduced | [^99mTc]TRODAT-1 SURs after pretreatment with methylphenidate HCl (dopamine transporter [2]; dual-isotopes, 180 to 210 minutes after injection, methylphenidate HCl 1 mg/kg 10 minutes before): greatly lowered

CN(C)Cc1ccccc1Sc1ccc([123I])cc1N [[^123I]ADAM]
[^123I]ADAM photos, single-isotope versus dual-isotopes (serotonin transporter; [3]): no big difference | binding of [^123I]ADAM in brain regions (SPECT photos) (serotonin transporter; 180 to 210 minutes after injection, midbrain, thalamus and striatum, single-isotope or dual-isotopes): bound to regions abundant in serotonin transporter | [^123I]ADAM SURs, single-isotope versus dual-isotopes (serotonin transporter; striatum, thalamus, midbrain and frontal cortex): no big difference
